In PMC11082923 (Journal of Agricultural and Food Chemistry, 2024):
Read-outs that look alike come from different tables or passages of the source.

Assays:
[1] = molecular target: T1, TAS2R16 (Homo sapiens, UniProt Q9NYV7); experiment: Fluo4-AM calcium imaging; type: cell-based
T1 sequence (Q9NYV7 1-291): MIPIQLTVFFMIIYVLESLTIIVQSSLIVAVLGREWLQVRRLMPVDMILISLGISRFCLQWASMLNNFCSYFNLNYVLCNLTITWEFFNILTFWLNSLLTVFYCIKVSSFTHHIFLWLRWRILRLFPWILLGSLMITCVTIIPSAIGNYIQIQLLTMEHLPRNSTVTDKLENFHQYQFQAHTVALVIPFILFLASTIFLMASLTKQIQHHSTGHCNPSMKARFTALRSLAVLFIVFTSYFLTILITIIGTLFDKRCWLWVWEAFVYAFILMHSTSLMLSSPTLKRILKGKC

[2] = molecular target: T1, TAS2R16; experiment: Fluo4-AM calcium imaging; type: cell-based; settings: agonist; C1 buffer with or without NaCl ([…] NMDG), pH […]

Q: How did the EC50 [1] turn out when `OCc1ccccc1O[C@@H]1O[C@H](CO)[C@@H](O)[C@H](O)[C@H]1O` [D-salicin] was run?
A: The EC50 was 1.28 ± 0.18 mM.

Q: How did the EC50 [2] turn out when `O=Cc1ccccc1O[C@@H]1O[C@H](CO)[C@@H](O)[C@H](O)[C@H]1O` [Helicin] was run?
A: Its EC50 is “signal saturation of TAS2R16 was achieved with phenyl-βD-glucopyranoside and helicin”.

Q: For `OC[C@H]1O[C@@H](Oc2ccccc2)[C@H](O)[C@@H](O)[C@@H]1O` [phenyl-βD-glucopyranoside], which EC50 [2] is on record?
A: Its EC50 is “signal saturation of TAS2R16 was achieved with phenyl-βD-glucopyranoside and helicin”.
